Legend:
kochia = experiment: Test A pre-/postemergence herbicide test; format: in vivo, Kochia scoparia
In short: (§1)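 Approximately 10 days after treatment in the greenhouse, plants were compared with untreated controls and given a 0–100 visual injury rating. Applications: preemergence directed soil spray; postemergence on 2–10 cm plants at the one- to two-leaf stage.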

corn = experiment: Test A pre-/postemergence herbicide test; format: in vivo, Zea mays; conditions: Postemergence
In short: as §1

ryegrass, Italian = experiment: Test C pre-/postemergence herbicide test; format: in vivo, Lolium multiflorum
In short: (§2)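 Plants grown and held in a greenhouse for 13 to 15 days post-spray, then rated 0–100 by visual comparison with controls. Pre treatments targeted seeds in loam and sand; post treatments targeted 1- to 4-leaf plants in peat-based potting medium.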

johnsongrass = experiment: Test C pre-/postemergence herbicide test; format: in vivo, Sorghum halepense
In short: as §2

morningglory = experiment: Test C pre-/postemergence herbicide test; format: in vivo, Ipomoea coccinea
In short: as §2

barnyardgrass = experiment: Test C pre-/postemergence herbicide test; format: in vivo, Echinochloa crus-galli
In short: as §2

[1] = 500 g ai/ha, 0 to 100 scale (0 no effect, 100 complete control)
[2] = Postemergence, 31 g ai/ha, scale 0 to 100 (0 no effect, 100 complete control)
[3] = Postemergence, 62 g ai/ha, scale 0 (no effect) to 100 (complete control)
[4] = Postemergence, 125 g ai/ha, scale 0 to 100 (0 no effect, 100 complete control)
[5] = Postemergence, 250 g ai/ha, scale 0 to 100 (0 no effect, 100 complete control)
[6] = Preemergence, 31 g ai/ha, scale 0 to 100, 0 is no effect and 100 is complete control
[7] = Preemergence, 62 g ai/ha, scale 0 to 100
[8] = Preemergence, 125 g ai/ha, scale 0 to 100 (0 no effect, 100 complete control)
[9] = Postemergence, 500 g ai/ha, 0 to 100 scale (0 no effect, 100 complete control)
[10] = Preemergence, 125 g ai/ha, 0 to 100 scale where 0 is no effect and 100 is complete control
[11] = Preemergence, 62 g ai/ha, scale 0 to 100 (0 no effect, 100 complete control)
[12] = Preemergence, 125 g ai/ha, scale 0 to 100

For `O=C1NCC(c2ccc(F)cc2)C1C(=O)Nc1ccc(F)c(F)c1F` (racemic) [Compound 120], which “Plant response rating, Kochia” value (kochia; 125 g ai/ha, visual rating, 0 to 100 scale, 0 no effect, 100 complete control, approximately 10 days, preemergence) is on record?
The value was 60.

And the “Plant response rating, Kochia” value (kochia; Postemergence, 125 g ai/ha, 0 to 100 scale, 0 no effect, 100 complete control)?
The value was 60.

And the “Kochia plant response rating (0 to 100 scale, 0 is no effect, 100 is complete control)” value (kochia; Postemergence, 500 g ai/ha)?
The value was 70.

And the “Plant response rating, Kochia” value (kochia; preemergence, 500 g ai/ha, 0 to 100 scale)?
The value was 80.

And the “Plant response rating, Corn” value (corn; 125 g ai/ha, 0 to 100 scale, 0 no effect, 100 complete control)?
The value was 20.

What about the “Plant response rating, Corn” value (corn; [1]) of the same compound?
Its value is 80.

What about the “Plant response rating, Ryegrass, Italian” value (ryegrass, Italian; [2]) of the same compound?
Its value is 0.

And the “Plant response rating, Ryegrass, Italian” value (ryegrass, Italian; [3])?
The value was 0.

What about the “Plant response rating, Ryegrass, Italian” value (ryegrass, Italian; [4]) of the same compound?
Its value is 0.

And the “Plant response rating, Ryegrass, Italian” value (ryegrass, Italian; [5])?
Its value is 10.

And the “Ryegrass, Italian plant response rating” value (ryegrass, Italian; [6])?
Its value is 10.

What about the “Plant response rating, Ryegrass, Italian” value (ryegrass, Italian; [7]) of the same compound?
The value was 5.

What about the “Plant response rating, Ryegrass, Italian” value (ryegrass, Italian; [8]) of the same compound?
Its value is 10.

And the “Plant response rating (scale of 0 to 100), Ryegrass, Italian” value (ryegrass, Italian; Preemergence, 250 g ai/ha)?
The value was 30.

What about the “Plant response rating, Johnsongrass” value (johnsongrass; [2]) of the same compound?
The value was 0.

What about the “Plant response rating, Johnsongrass” value (johnsongrass; [3]) of the same compound?
Its value is 0.

And the “Plant response rating, Johnsongrass” value (johnsongrass; [4])?
The value was 0.

And the “Plant response rating, Johnsongrass” value (johnsongrass; [5])?
Its value is 0.

And the “Johnsongrass plant response rating” value (johnsongrass; [6])?
Its value is 0.

What about the “Plant response rating, Johnsongrass” value (johnsongrass; [7]) of the same compound?
Its value is 0.

What about the “Plant response rating, Johnsongrass” value (johnsongrass; [8]) of the same compound?
The value was 25.

What about the “Plant response rating (scale of 0 to 100), Johnsongrass” value (johnsongrass; Preemergence, 250 g ai/ha) of the same compound?
Its value is 65.

And the “Plant response rating, Morningglory” value (morningglory; [2])?
Its value is 0.

What about the “Plant response rating, Morningglory” value (morningglory; [3]) of the same compound?
Its value is 5.

What about the “Plant response rating, Morningglory” value (morningglory; [4]) of the same compound?
Its value is 0.

What about the “Plant response rating, Morningglory” value (morningglory; [5]) of the same compound?
The value was 5.

What about the “Morningglory plant response rating” value (morningglory; [6]) of the same compound?
The value was 0.

And the “Plant response rating, Morningglory” value (morningglory; [7])?
The value was 0.

And the “Plant response rating, Morningglory” value (morningglory; [8])?
Its value is 35.

What about the “Plant response rating (scale of 0 to 100), Morningglory” value (morningglory; Preemergence, 250 g ai/ha) of the same compound?
The value was 40.

What about the “Plant response rating, Barnyardgrass” value (barnyardgrass; [2]) of the same compound?
The value was 0.

And the “Plant response rating, Barnyardgrass” value (barnyardgrass; [3])?
Its value is 30.

What about the “Plant response rating, Barnyardgrass” value (barnyardgrass; [4]) of the same compound?
The value was 40.

And the “Plant response rating, Barnyardgrass” value (barnyardgrass; [5])?
Its value is 65.

And the “Barnyardgrass plant response rating” value (barnyardgrass; [6])?
Its value is 85.

What about the “Plant response rating, Barnyardgrass” value (barnyardgrass; [7]) of the same compound?
The value was 90.

What about the “Plant response rating, Barnyardgrass” value (barnyardgrass; [8]) of the same compound?
The value was 95.

And the “Plant response rating (scale of 0 to 100; 0 is no effect, 100 is complete control), Barnyardgrass” value (barnyardgrass; Preemergence, 250 g ai/ha)?
The value was 98.

How did the “Plant response rating, Kochia” value (kochia; Postemergence, 125 g ai/ha, visual rating on 0 to 100 scale (0 no effect, 100 complete control), approx. 10 days) turn out when `O=C1NCC(c2cccc(OC(F)F)c2)C1C(=O)Nc1ccccc1F` (stereo not drawn) [Compound 323] was run?
Its value is 40.

What about the “Plant response rating, Kochia” value (kochia; [9]) of the same compound?
The value was 90.

What about the “Plant response rating, Kochia” value (kochia; [10]) of the same compound?
The value was 50.

What about the “Kochia plant response rating” value (kochia; Preemergence, 500 g ai/ha, visual rating on 0 to 100 scale (0 no effect, 100 complete control)) of the same compound?
The value was 80.

And the “Plant response rating, Corn” value (corn; 125 g ai/ha, visual rating on 0 to 100 scale (0 no effect, 100 complete control), approx. 10 days)?
The value was 70.

What about the “Plant response rating, Corn” value (corn; [1]) of the same compound?
Its value is 90.

What about the “Plant response rating, Ryegrass, Italian” value (ryegrass, Italian; [2]) of the same compound?
The value was 0.

And the “Plant response rating, Ryegrass, Italian” value (ryegrass, Italian; [3])?
Its value is 0.

And the “Plant response rating, Ryegrass, Italian” value (ryegrass, Italian; [4])?
Its value is 0.

And the “Plant response rating, Ryegrass, Italian” value (ryegrass, Italian; [5])?
The value was 5.

What about the “Ryegrass, Italian plant response rating” value (ryegrass, Italian; [11]) of the same compound?
The value was 10.

What about the “Plant response rating, Ryegrass, Italian” value (ryegrass, Italian; [12]) of the same compound?
The value was 0.

And the “Plant response rating, Johnsongrass” value (johnsongrass; [2])?
The value was 0.

And the “Plant response rating, Johnsongrass” value (johnsongrass; [3])?
The value was 0.

And the “Plant response rating, Johnsongrass” value (johnsongrass; [4])?
Its value is 0.

And the “Plant response rating, Johnsongrass” value (johnsongrass; [5])?
Its value is 10.

And the “Johnsongrass plant response rating” value (johnsongrass; [6])?
The value was 0.

And the “Johnsongrass plant response rating” value (johnsongrass; [11])?
Its value is 0.

What about the “Plant response rating, Johnsongrass” value (johnsongrass; [12]) of the same compound?
Its value is 45.

And the “Plant response rating (scale of 0 to 100), Johnsongrass” value (johnsongrass; Preemergence, 250 g ai/ha)?
Its value is 60.

What about the “Plant response rating, Morningglory” value (morningglory; [2]) of the same compound?
The value was 0.

And the “Plant response rating, Morningglory” value (morningglory; [3])?
The value was 25.

And the “Plant response rating, Morningglory” value (morningglory; [4])?
The value was 5.

What about the “Plant response rating, Morningglory” value (morningglory; [5]) of the same compound?
The value was 25.

And the “Morningglory plant response rating” value (morningglory; [6])?
Its value is 0.

And the “Morningglory plant response rating” value (morningglory; [11])?
Its value is 0.

What about the “Plant response rating, Morningglory” value (morningglory; [12]) of the same compound?
Its value is 0.

And the “Plant response rating (scale of 0 to 100), Morningglory” value (morningglory; Preemergence, 250 g ai/ha)?
The value was 30.

And the “Plant response rating, Barnyardgrass” value (barnyardgrass; [2])?
The value was 0.

What about the “Plant response rating, Barnyardgrass” value (barnyardgrass; [3]) of the same compound?
The value was 10.

And the “Plant response rating, Barnyardgrass” value (barnyardgrass; [4])?
Its value is 35.

What about the “Plant response rating, Barnyardgrass” value (barnyardgrass; [5]) of the same compound?
The value was 70.

And the “Barnyardgrass plant response rating” value (barnyardgrass; [6])?
The value was 80.

And the “Barnyardgrass plant response rating” value (barnyardgrass; [11])?
The value was 85.

What about the “Plant response rating, Barnyardgrass” value (barnyardgrass; [8]) of the same compound?
The value was 98.

And the “Plant response rating (scale of 0 to 100; 0 is no effect, 100 is complete control), Barnyardgrass” value (barnyardgrass; Preemergence, 250 g ai/ha)?
The value was 98.

What does the source list for `O=C1NCC(c2cc(F)cc(F)c2)C1C(=O)Nc1ccccc1Cl` (racemic) [Compound 280]?
Plant response rating, Kochia (kochia; Postemergence, 125 g ai/ha, 0 to 100 scale, 0 is no effect, 100 is complete control): 0; Plant response rating, Kochia (kochia; [9]): 0; Plant response rating, Kochia (kochia; [10]): 0; Plant response rating, Kochia (kochia; preemergence, 500 g ai/ha, 0 to 100 scale, 0 is no effect and 100 is complete control): 0; Plant response rating, Corn (corn; 125 g ai/ha, 0 to 100 scale, 0 is no effect, 100 is complete control): 0; Plant response rating, Corn (corn; [1]): 0; Ryegrass, Italian plant response rating (ryegrass, Italian; [6]): 0; Ryegrass, Italian plant response rating (ryegrass, Italian; [11]): 0; Plant response rating, Ryegrass, Italian (ryegrass, Italian; [8]): 0; Plant response rating (scale of 0 to 100), Ryegrass, Italian (ryegrass, Italian; Preemergence, 250 g ai/ha): 5; Johnsongrass plant response rating (johnsongrass; [6]): 0; Johnsongrass plant response rating (johnsongrass; [11]): 0; Plant response rating, Johnsongrass (johnsongrass; [8]): 10; Plant response rating (scale of 0 to 100), Johnsongrass (johnsongrass; Preemergence, 250 g ai/ha): 10; Morningglory plant response rating (morningglory; [6]): 10; Morningglory plant response rating (morningglory; [11]): 25; Plant response rating, Morningglory (morningglory; [8]): 0; Plant response rating (scale of 0 to 100), Morningglory (morningglory; Preemergence, 250 g ai/ha): 30; Barnyardgrass plant response rating (barnyardgrass; [6]): 55; Barnyardgrass plant response rating (barnyardgrass; [11]): 65; Plant response rating, Barnyardgrass (barnyardgrass; [8]): 85; Plant response rating (scale of 0 to 100; 0 is no effect, 100 is complete control), Barnyardgrass (barnyardgrass; Preemergence, 250 g ai/ha): 95

Reference: patent US10294202B2, “Pyrrolidinones as herbicides” (FMC Corporation, priority 2013, dated 2019)
